These results are taken from patent US20070082934A1, “Substituted 4-aryloxy and 4-arylsulfanyl-phenyl-2-aminothiazoles as inhibitors of cell proliferation” (priority 2003, published 2007).

“Also recorded” adds a separate entry of the source. Like-named read-outs stand apart in the source and are kept apart here.

Data set [1] deals with MCF7 cells. The data set is described as follows: Inhibition of breast cell proliferation, SRB assay, 48 hour incubation. The format is cell-based, human. The following applies: for inhibition at 100 µM: Homo sapiens. The method, then: MCF7 cells were treated with compounds or vehicle (DMSO). […] Percent inhibition of growth at 100 μM was determined and GI50 values were calculated from log-dose response curves as previously described ([…] et al., Cancer Res., 2003, 63:3211-3220).

In data set [2] the test system is human breast cancer cell lines. The data set is described as follows: NCI anti-tumor screen, breast cancer cell line panel as a whole. The format is cell-based. The following applies: for selectivity among breast cancer cell lines: comparison of GI50 values across cell lines; for growth inhibition of human breast tumor cells, in words: estrogen-positive and negative breast cancer cell lines. As for the experimental part: (§1) Compounds were tested at the National Cancer Institute's Developmental Therapeutics Program, in duplicate, against 60 human tumor cell lines at a minimum of five concentrations at 10-fold dilutions: A 48 hour continuous drug exposure protocol was used, and a sulforhodamine B (SRB) protein assay was used to estimate cell viability or growth.
(§2) Upon completion of the synthesis, the thiazole compounds 17-24 and 27-30 were submitted to the NCI's antitumor screen (see Monks et al., J. Natl. Cancer Inst., 1991, 83:757b 766; Bray and Wickstrom, Biotechniques, 1996, 21:5:780-782) and the results against human breast cancer cell lines are shown in Table 2 as GI50 values.

The test system of data set [3] is 60 human tumor cell lines. The data set is described as follows: NCI anti-tumor screen, all NCI cell lines. The format is cell-based. The following applies: NCI cell lines other than breast (FIG. 3). As for the experimental part: FIG. 3 is a graphic representation of a GI50 comparison for compound 17 (4-[4′-(4-Chlorophenoxy)-phenyl]-thiazol-2-yl ammonium iodide) for all NCI cell lines. The ordinate represents growth inhibitor activity and the abscissa indicates the type of tumor as well as each cell line treated with compound 17. L=leukemia; NSCLC Non-small cell lung cancer; C=Colon; CNS=central nervous system; M=Melanoma; O=Ovarian; R=Renal; P=Prostate; B=Breast.
as §1

The test system of data set [4] is MDA-MB-435. The data set is described as follows: NCI anti-tumor screen, SRB assay, 48 hour exposure. Type of data set: cell-based, human. The conditions noted are these: estrogen-negative cell line MDA-MB-435. The method, then: as §1, §2
Data set [5] deals with BT-549. The data set is described as follows: NCI anti-tumor screen, SRB assay, 48 hour exposure. Type of data set: cell-based, human. The following applies: BT-549 breast cancer cell line. The method, then: as §1, §2
Data set [6] relates to MDA-MB-231/ATCC. Briefly: NCI anti-tumor screen, SRB assay, 48 hour exposure. The following applies: MDA-MB-231/ATCC breast cancer cell line. The format is cell-based, human. As for the experimental part: as §1, §2
For orientation: Sulforhodamine B stains cellular protein and so reports cell mass.

The subject of data set [7] is MCF7. Briefly: NCI anti-tumor screen, SRB assay, 48 hour exposure. Type of data set: cell-based, human. The following applies: MCF7 breast cancer cell line. As for the experimental part: as §1, §2
Data set [8] relates to NCI/ADR-RES. Briefly: NCI anti-tumor screen, SRB assay, 48 hour exposure. The format is cell-based, human. The following applies: adriamycin-resistant cell line. The method, then:
as §1, §2

In data set [9] the test system is T-47D. Briefly: NCI anti-tumor screen, SRB assay, 48 hour exposure. The format is cell-based, human. The conditions noted are these: estrogen-positive cell line T-47D. The method, then: as §1, §2
The test system of data set [10] is HS 578T. Briefly: NCI anti-tumor screen, SRB assay, 48 hour exposure. The conditions noted are these: estrogen-negative HS 578T cell line. Type of data set: cell-based, human. As for the experimental part: as §1, §2

In the case of `Nc1nc(-c2ccc(Oc3ccccc3)cc2)cs1` [Compound 16, 4-(4′-Phenoxyphenyl)-thiazol-2-yl ammonium iodide], the inhibition at 100 µM in data set [1] was 81%.

As to `I.Nc1nc(-c2ccc(Oc3ccc(Cl)cc3)cc2)cs1` [Compound 17, 4-[4′-(4-Chlorophenoxy)-phenyl]-thiazol-2-yl ammonium iodide], the concentration for 50% growth inhibition (GI50) is above 100 µM in data set [2] (Homo sapiens, T47D, all breast cancer cell lines except T-47D, read-out: GI50 in all cell lines except T-47D); above 100 µM in data set [4] (Homo sapiens); above 100 µM in data set [5] (Homo sapiens); above 100 µM in [6] (Homo sapiens); above 100 µM in data set [7] (Homo sapiens); above 100 µM in data set [8] (Homo sapiens, NCI/ADR-RES). For the same compound, the concentration for 50% growth inhibition (GI50) was 0.917 µM in data set [9] (Homo sapiens, T47D) and above 100 µM in [10] (Homo sapiens). In addition, the “activity against other types of cancer” value in data set [3] is reported as “not effective against other types of cancer”. In data set [1], this compound registered an inhibition at 100 µM of 85%.

Regarding `I.Nc1nc(-c2ccc(Oc3cccc(Cl)c3)cc2)cs1` [Compound 18, 4-[4-(3′-Chlorophenoxy)-phenyl]-thiazol-2-yl ammonium iodide], the “selectivity among breast cancer cell lines” value in data set [2] is listed as “active only against estrogen receptor-negative breast cancer”. In addition, the “% Inhibition of MCF7 cells at 100 μM” value in [1] came out at 100%. Further, the GI50 worked out at 2.1 µM in data set [4]; 14.3 µM in [5]; 4.8 µM in [6]; 14.6 µM in data set [7]; 13.2 µM in [8]; 14 µM in data set [9]. The same compound yielded a GI50 in [10] of 19.7 µM.

As for `I.Nc1nc(-c2ccc(Oc3ccccc3Cl)cc2)cs1` [Compound 19, 4-[4-(2′-Chlorophenoxy)-phenyl]-thiazol-2-yl ammonium iodide], the “% Inhibition of MCF7 cells at 100 μM” value in data set [1] is 87%. Besides, the GI50 in data set [4] was 14.8 µM; in data set [5], 12.8 µM; in [6] it was 10.5 µM; in [7], 27.4 µM; in [8], 25.8 µM; in [9], 16.4 µM.

In turn, `I.Nc1nc(-c2ccc(Oc3ccc(Cl)c(Cl)c3)cc2)cs1` [Compound 20, 4-[4′-(3,4-Dichlorophenoxy)-phenyl]-thiazol-2-yl ammonium iodide] registered a melting point of 202 to 205 °C. Also, in [2], the “selectivity among breast cancer cell lines” value is on record as “selectivity for the adriamycin-resistant cell line” and the “growth inhibition of human breast tumor cells, in words” value was “low micromolar growth inhibition of most human breast tumor cells; also recorded: low micromolar”. This compound registered an inhibition at 100 µM in data set [1] of 47%. Also, the concentration for 50% growth inhibition (GI50) in data set [4] (Homo sapiens) came to 0.759 µM. In [5] (Homo sapiens), this compound had a 50% growth inhibitory concentration (GI50) of 1.91 µM. The compound further registered a GI50 in [6] (Homo sapiens) of 2.29 µM. In data set [7] (Homo sapiens), this compound returned a 50% growth inhibitory concentration (GI50) of 3.02 µM. In [8] (Homo sapiens, NCI/ADR-RES), this compound gave a 50% growth inhibitory concentration (GI50) of 1.29 µM. This compound also had a GI50 in data set [9] (Homo sapiens, T47D) of 20.9 µM. In data set [10] (Homo sapiens), this compound returned a GI50 of 2 µM.

`COc1ccc(Oc2ccc(-c3csc(N)n3)cc2)cc1.I` [Compound 21, 4-[4′-(4-Methoxyphenoxy)-phenyl]-thiazol-2-yl ammonium iodide] displayed a melting point of 204 to 207 °C. Also, the inhibition at 100 µM in data set [1] was found to be 24%.

In turn, `Cc1ccc(Oc2ccc(-c3csc(N)n3)cc2)cc1.I` [Compound 22, 4-[4′-(p-Toluoxy)phenyl]-thiazol-2-yl ammonium iodide] displayed a melting point of 118 to 120 °C. For the same compound, at 100 µM the inhibition in data set [1] was 98%. Growth in [4] (Homo sapiens) was halved (GI50) at 11.8 µM. For the same compound, the GI50 in data set [6] (Homo sapiens) came out at 14.1 µM. For the same compound, the 50% growth inhibitory concentration (GI50) in data set [7] (Homo sapiens) turned out to be 17.2 µM. Besides, in [8] (Homo sapiens, NCI/ADR-RES), the 50% growth inhibitory concentration (GI50) was determined as 18.2 µM. In data set [9] (Homo sapiens, T47D), this compound showed a GI50 of 0.54 µM. Moreover, halving of growth in [10] (Homo sapiens) (GI50) required 22.7 µM.

Compound `I.Nc1nc(-c2ccc(Oc3ccc(-c4ccccc4)cc3)cc2)cs1` [Compound 23, 4-[4′-(Biphenyl-4-yloxy)-phenyl]-thiazol-2-yl ammonium iodide] showed a melting point of 253 to 254 °C. 100 µM produced 53% inhibition in [1]. Besides, halving of growth in [4] (Homo sapiens) (GI50) required 18.6 µM. In data set [5] (Homo sapiens), this compound registered a concentration for 50% growth inhibition (GI50) of 10.4 µM. Moreover, the GI50 in data set [6] (Homo sapiens) was 12.6 µM. Further, the GI50 in data set [7] (Homo sapiens) came out at 14.3 µM. In addition, growth in [8] (Homo sapiens, NCI/ADR-RES) was halved (GI50) at 17.4 µM. The GI50 in data set [9] (Homo sapiens, T47D) worked out at 3.91 µM. In data set [10] (Homo sapiens), the 50% growth inhibitory concentration (GI50) came out at 18.8 µM.

`I.Nc1nc(-c2ccc(Oc3ccc(Oc4ccccc4)cc3)cc2)cs1` [Compound 24, 4-[4′-(4-Phenoxy-phenoxy)-phenyl]-thiazol-2-yl ammonium iodide] showed a melting point of 137 to 140 °C. Further, the inhibition at 100 µM in data set [1] worked out at 81%. In [4] (Homo sapiens), this compound displayed a 50% growth inhibitory concentration (GI50) of 22.7 µM. The same compound had a GI50 in data set [5] (Homo sapiens) of 16.1 µM. This compound also gave a GI50 in [6] (Homo sapiens) of 12.6 µM. This compound also returned a 50% growth inhibitory concentration (GI50) in data set [7] (Homo sapiens) of 35.1 µM. The compound also had a concentration for 50% growth inhibition (GI50) in data set [8] (Homo sapiens, NCI/ADR-RES) of 35.9 µM. The compound further had a GI50 in data set [9] (Homo sapiens, T47D) of 4.9 µM. Also, growth in data set [10] (Homo sapiens) was halved (GI50) at 27.8 µM.

As for `CCOC(=O)c1cccc(Oc2ccc(-c3csc(N)n3)cc2)c1.I` [Compound 25, 4-[4-(3′-Ethoxycarbonyl-phenoxy)-phenyl]-thiazol-2-yl ammonium iodide], in data set [1], the “% Inhibition of MCF7 cells at 100 μM” value is on record as 84%.

For `I.Nc1nc(-c2ccc(Sc3ccccc3)cc2)cs1` [Compound 26, 4-(4′-Phenylsulfanyl-phenyl)-thiazol-2-yl ammonium iodide], the melting point fell in the range of 129 to 132 °C. In data set [1], this compound yielded an inhibition at 100 µM of 79%.

For `I.Nc1nc(-c2ccc(Sc3ccc(Cl)cc3)cc2)cs1` [Compound 27, 4-[4-(4′-Chloro-phenylsulfanyl)-phenyl]-thiazol-2-yl ammonium iodide], the “selectivity among breast cancer cell lines” value in data set [2] is reported as “active only against estrogen receptor-negative breast cancer”. Also, the “% Inhibition of MCF7 cells at 100 μM” value in data set [1] is 89%. In addition, the GI50 in data set [4] was 1.49 µM; in [5], 15.3 µM; in [6] it was 12.4 µM; in data set [7], 21.6 µM; in [8] it was 17.5 µM; in data set [9] it was 24.4 µM. The compound also showed a concentration for 50% growth inhibition (GI50) in data set [10] of 18.8 µM.

For the compound `I.Nc1nc(-c2ccc(Sc3ccc(Cl)c(Cl)c3)cc2)cs1` [Compound 28, 4-[4-(3′,4′-Dichloro-phenylsulfanyl)-phenyl]-thiazol-2-yl ammonium iodide], the GI50 was 1 to 5 µM in [2] (all breast cancer cell lines except HS 578T, read-out: GI50 values in all cell lines except HS 578T); 1.11 µM in [4]; 5.95 µM in data set [5]; 3.73 µM in data set [6]; 5.68 µM in [7]; 3.37 µM in data set [8]. In addition, the 50% growth inhibitory concentration (GI50) in data set [9] is 2.79 µM. Moreover, the “selectivity among breast cancer cell lines” value in data set [2] is given as “selectivity for the adriamycin-resistant cell line”. Further, the “growth inhibition of human breast tumor cells, in words” value in [2] is reported as “low micromolar growth inhibition of most human breast tumor cells”. In addition, in data set [1], the “% Inhibition of MCF7 cells at 100 μM” value turned out to be 54%.

Turning to `COc1ccc(Sc2ccc(-c3csc(N)n3)cc2)cc1.I` [Compound 29, 4-[4-(4′-Methoxy-phenylsulfanyl)-phenyl]-thiazol-2-yl ammonium iodide], the “% Inhibition of MCF7 cells at 100 μM” value in data set [1] is 11%.

`Cc1ccc(Sc2ccc(-c3csc(N)n3)cc2)cc1.I` [Compound 30, 4-(4′p-Tolylsulfanyl-phenyl)-thiazol-2-yl ammonium iodide] came in with a melting point of 182 to 185 °C. For the same compound, in data set [2], the “selectivity among breast cancer cell lines” value was “active only against estrogen receptor-negative breast cancer”. For the same compound, 100 µM produced 96% inhibition in data set [1]. In addition, halving of growth in [4] (Homo sapiens) (GI50) required 1.4 µM. For the same compound, the GI50 in data set [5] (Homo sapiens) amounted to 25.7 µM. For the same compound, in data set [6] (Homo sapiens), the 50% growth inhibitory concentration (GI50) is above 100 µM. In data set [7] (Homo sapiens), this compound had a GI50 of 25.9 µM. The compound also yielded a GI50 in data set [8] (Homo sapiens, NCI/ADR-RES) of 64.6 µM. In data set [9] (Homo sapiens, T47D), this compound displayed a 50% growth inhibitory concentration (GI50) of 68 µM. The same compound gave a concentration for 50% growth inhibition (GI50) in [10] (Homo sapiens) of 59.6 µM.

As a reminder, the inhibition is the drop in the measured response relative to a control, in per cent. A lower inhibition goes with a weak effect. One may read the GI50 as the concentration giving 50% growth inhibition. The melting point is the temperature, or range, at which the solid turns liquid.
